What all share (assay type): ADME, organism-based
Conditions in all cases: in vivo

A short description of series [1]: Bioavailability in rat at 10 mg/kg, po.
The nature of series [2]: Bioavailability in rat at 10 mg/kg, ip.
A short description of series [3]: Half life in rat at 10 mg/kg, po. More on the design: dose 10 mg/kg, route oral.

As to `O=C(O)[C@H](C1CCN(C(=O)/C=C/c2cc(F)c(F)c(F)c2)CC1)N1CCC(c2c[nH]c3ccccc23)CC1`, the bioavailability is 15% in series [1] and 100% in series [2]. Also, the half-life in series [3] was 7 h.

By bioavailability is commonly meant the share of a dose that reaches the circulation, judged against a reference dose that is usually intravenous. In general, half-life refers to the time in which the quantity being followed falls by half. Read a low half-life as rapid decline.

The values are drawn from ChEMBL document CHEMBL1137619, “Synthesis, structure-activity relationship and in vivo antiinflammatory efficacy of substituted dipiperidines as CCR2 antagonists” (J Med Chem, 2007).
